The values that follow come from patent US9417245B2, “Porphyrinic compounds for use in flow cytometry” (North Carolina State University, priority 2005, dated 2016).

“And” between values parts separate entries of the source, which are not always exact repeats. Equal entries are not always repeated. Where two headings read alike, the source gives them in different places.

Data set [1] in a line: Absorption spectroscopy of chlorins (B and Qy bands, log ε, B/Qy ratio). As to conditions: for ΔvQy: Example 2 Table 2, redshift relative to the parent chlorin (ZnC or Zn-M^10). It is filed as physicochemical.
Source text: (§1) The spectral properties of interest in the chlorins include the position of the long-wavelength Qy transition, the intensity of the Qy transition, and the fluorescence quantum yield of the chlorin. The intensity of the Qy transition can be assessed by the measured molar absorption coefficient; however, comparisons of such values are somewhat unreliable given the experimental variability encountered upon handling small quantities of materials. A better comparison is achieved by examination of the ratio of the intensities of the B and Qy bands for a given compound (B/Qy ratio), which is determined simply by absorption spectroscopy without requiring determination of the molar absorption coefficient. For a wide variety of applications, bathochromic and hyperchromic shifts of the Qy band are desired (i.e., shifted to longer wavelength and intensified), thereby affording strong absorption in the deep-red region.
^1H NMR (400 MHz) and ^13C NMR (75 MHz) spectra were collected at room temperature in CDCl3. Absorption spectra were obtained in toluene at room temperature. Chlorins were analyzed by laser desorption mass spectrometry (LD-MS) in the absence of a matrix. Fast atom bombardment mass spectrometry (FAB-MS) data are reported for the molecule ion or protonated molecule ion. Melting points are uncorrected. All commercially available materials were used as received. All palladium-coupling reactions were carried out using standard Schlenk-line techniques.
as §1, with “increased” for “intensified), thereby affording strong absorption”, “intensity).” for “the deep-red region.”
^1H NMR (400 MHz) and ^13C NMR (75 MHz) spectra were collected at room temperature in CDCl3 unless noted otherwise. Absorption spectra were obtained in toluene at room temperature. Chlorins were analyzed by laser desorption mass spectrometry (LD-MS) in the absence of a matrix. Metalation of free base chlorins was monitored by fluorescence spectroscopy. Melting points are uncorrected. All commercially available materials were used as received.

The nature of data set [2]: Fluorescence spectroscopy (emission bands, fluorescence quantum yield). It counts as physicochemical. As to conditions: in toluene at room temperature. The method, then: The fluorescence spectra and fluorescence quantum yields reported herein were collected in toluene at room temperature. Measurements of fluorescence quantum yield (Φf) were carried out using chlorin Zn-11 (Φf=0.065) as a standard.^16

For data set [3] the following is noted: literature, cited from earlier work; for Qy band position: FIG. 3, natural pigments, in diethyl ether.

Take `Cc1ccc(-c2c3nc(c(-c4c(C)cc(C)cc4C)c4cc5c([nH]4)c(c4nc(cc6ccc2[nH]6)C(C)(C)C4)CC5=O)C=C3)cc1` [Compound 2, 18,18-Dimethyl-10-mesityl-13^1-oxo-5-p-tolylphorbine]: in data set [1] (in toluene at room temperature), the Qy band position was determined as 660 nm.

Regarding `CC(=O)c1cc2[n]3c1=CC1=NC(=Cc4ccc([n]4[Zn]3)C(c3ccc(C)cc3)=C3C=CC(=N3)C=2c2c(C)cc(C)cc2C)C(C)(C)C1` [Zn-1, Zn(II)-13-Acetyl-17,18-dihydro-10-mesityl-18,18-dimethyl-5-p-tolylporphyrin], in data set [1] (in toluene at room temperature), the B band position was 424 nm; the “B/Qy band intensity ratio” value is listed as 2.9; the Qy band position is 632 nm and 635 nm. Besides, the “log ε (Qy band)” value in data set [1] (molar absorption coefficient comparison, toluene) was 4.75. Also, in data set [2], the “strong Qy(0,0) / dominant fluorescence band” value was “around 641 nm”.

On to `CC(=O)c1cc2[n]3c1C=C1CC(C)(C)C(=N1)C=c1cc(C#C[Si](C(C)C)(C(C)C)C(C)C)c([n]1[Zn]3)=CC1=NC(=C2c2c(C)cc(C)cc2C)C=C1` [ZnC-E^3M^10A^13, Zn(II)-13-Acetyl-3-[2-(triisopropylsilyl)ethynyl]-17,18-dihydro-10-mesityl-18,18-dimethylporphyrin], for which the “ΔvQy” value in data set [1] (toluene) came out at 1160 cm⁻¹. Further, in data set [1] (in toluene at room temperature), the Qy band position is 652 nm.

`Cc1cc(C)c(C2=c3cc(C#C[Si](C(C)C)(C(C)C)C(C)C)c4[n]3[Zn][n]3c(cc(C#C[Si](C(C)C)(C(C)C)C(C)C)c3C=C3C=CC2=N3)C=C2N=C(C=4)CC2(C)C)c(C)c1` [ZnC-E^3M^10E^13, Zn(II)-3,13-Bis[2-(triisopropylsilyl)ethynyl]-17,18-dihydro-10-mesityl-18,18-dimethylporphyrin]: the “ΔvQy” value in data set [1] (toluene) was 1020 cm⁻¹. The Qy band position in data set [1] (in toluene at room temperature) is on record as 646 nm.

For `CC(=O)c1cc2[n]3c1C=C1CC(C)(C)C(=N1)C=c1ccc([n]1[Zn]3)=CC1=NC(=C2c2c(C)cc(C)cc2C)C=C1` [ZnC-M^10A^13, Zn(II)-13-Acetyl-17,18-dihydro-10-mesityl-18,18-dimethylporphyrin], in data set [1] (toluene), the “ΔvQy” value is 680 cm⁻¹. Moreover, in data set [1] (in toluene at room temperature), the “B/Qy band intensity ratio” value came to 2.2 and the Qy band position is 632 nm.

Regarding `Cc1cc(C)c(C2=c3cc(C#C[Si](C(C)C)(C(C)C)C(C)C)c4[n]3[Zn][n]3c(ccc3C=C3N=C(C=4)CC3(C)C)C=C3C=CC2=N3)c(C)c1` [ZnC-M^10E^13, Zn(II)-13-[2-(Triisopropylsilyl)ethynyl]-17,18-dihydro-10-mesityl-18,18-dimethylporphyrin], the “ΔvQy” value in data set [1] (toluene) is 530 cm⁻¹. For the same compound, the Qy band position in data set [1] (in toluene at room temperature) was determined as 626 nm.

As for `C=Cc1cc2[n]3c1C=C1C=CC(=N1)C(c1c(C)cc(C)cc1C)=c1ccc([n]1[Zn]3)=CC1=NC(=C2)C(C)(C)C1` [ZnC-V^3M^10], in data set [1] (toluene), the “ΔvQy” value is 400 cm⁻¹. Also, the Qy band position in data set [1] (in toluene at room temperature) is 621 nm.

On to `C=Cc1c(C)c2cc3nc(c4c5[n-]c(cc6nc(cc1[n-]2)C(C)=C6CC)c(C)c5C(=O)[C@@H]4C(=O)OC)[C@@H](CCC(=O)OC/C=C(\C)CCC[C@H](C)CCC[C@H](C)CCCC(C)C)[C@@H]3C.[Mg+2]` [chlorophyll a], for which, in data set [3], the Qy band position is 662 nm. Also, in data set [3] (chlorophyll a), the B band position is recorded as 430 nm and the “B/Qy band intensity ratio” value is 1.3.

Take `C=Cc1c(C)c2cc3nc(c4c5[n-]c(cc6nc(cc1[n-]2)C(C=O)=C6CC)c(C)c5C(=O)[C@@H]4C(=O)OC)[C@@H](CCC(=O)OC/C=C(\C)CCC[C@H](C)CCC[C@H](C)CCCC(C)C)[C@@H]3C.[Mg+2]` [chlorophyll b]: the Qy band position in data set [3] was 644 nm and 642 nm.

For pheophytin a, the Qy band position in data set [3] is 667 nm.
